Molecular target: T1, KRAS G12C 1-169, his-tagged protein, GDP-loaded (Homo sapiens, UniProt P01116, G12C)
T1 construct: KRAS G12C 1-169, his-tagged protein, GDP-loaded; His tag
Assay: Biochemical assay: covalent modification of KRAS G12C, analysed by mass spectrometry (RapidFire/TOF or Q-Exactive); note: time not given here
Type: binding
Conditions: Modification activity, modification percentage from MS peak intensities
Outline: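 GDP-loaded His-tagged KRAS G12C 1-169 (2 μM or 0.5 μM in 20 mM Hepes, 150 mM NaCl, 1 mM MgCl2) reacted with compound at 32 μM or 8 μM final (2% DMSO) for a set time, then quenched with formic acid. Percent covalent modification from deconvoluted intact-protein MS peak intensities (RapidFire/TOF or LC-Q Exactive).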

For C=CC(=O)N1CC2(CCN(c3cnc(Cc4ccccc4)c(-c4c(C)ccc5cnn(C)c45)c3C#N)C2)C1 [Compound I-224], the Binding % was “++ (++ indicates binding activity from 50 to 85%)”.
C=CC(=O)N1CC2(CCN(c3nc(C4CCOCC4)nc(-c4c(C)ccc5[nH]ncc45)c3C#N)C2)C1 [Compound I-196, 4-(2-acryloyl-2,6-diazaspiro[3.4]octan-6-yl)-6-(5-methyl-1H-indazol-4-yl)-2-(tetrahydro-2H-pyran-4-yl)pyrimidine-5-carbonitrile] was tested, and the Binding % was “++ (++ indicates binding activity from 50 to 85%)”.
C=CC(=O)N1CC2(CCN(c3ccnc(-c4c(C)ccc5[nH]ncc45)c3C#N)C2)C1 [Compound I-252, 4-(2-acryloyl-2,6-diazaspiro[3.4]octan-6-yl)-2-(5-methyl-1H-indazol-4-yl)nicotinonitrile] was tested, and the Binding % was “+ (+ indicates binding activity greater than 0% and up to 50%)”.
C=CC(=O)N1CC2(CCN(c3nc(=O)n(Cc4ccccc4)c(-c4c(C)ccc5[nH]ncc45)c3C#N)C2)C1 [Compound I-178, 4-(2-acryloyl-2,6-diazaspiro[3.4]octan-6-yl)-1-benzyl-6-(5-methyl-1H-indazol-4-yl)-2-oxo-1,2-dihydropyrimidine-5-carbonitrile] was tested, and the Binding % was “+ (+ indicates binding activity greater than 0% and up to 50%)”.
In the case of C=CC(=O)N1CC2(CCN(c3nc(N4CCOCC4)nc(-c4c(C)ccc5[nH]ncc45)c3F)C2)C1 [Compound I-118, 1-(6-(5-fluoro-6-(5-methyl-1H-indazol-4-yl)-2-morpholinopyrimidin-4-yl)-2,6-diazaspiro[3.4]octan-2-yl)prop-2-en-1-one], the Binding % is reported as “++ (++ indicates binding activity from 50 to 85%)”.
C=CC(=O)N1CC2(CCN(c3nc(OC4CCN(C)CC4)nc(-c4c(C)ccc5[nH]ncc45)c3C#N)C2)C1 [Compound I-43, 4-(2-acryloyl-2,6-diazaspiro[3.4]octan-6-yl)-6-(5-methyl-1H-indazol-4-yl)-2-((1-methylpiperidin-4-yl)oxy)pyrimidine-5-carbonitrile] was tested, and the Binding % was “+++ (+++ indicates binding activity greater than 85%)”.
In the case of C=CC(=O)N1CC2(CCN(c3nc(OCCN4CCC(F)(F)C4)nc(-c4c(C)ccc5[nH]ncc45)c3C#N)C2)C1 [Compound I-21, 4-(2-acryloyl-2,6-diazaspiro[3.4]octan-6-yl)-2-(2-(3,3-difluoropyrrolidin-1-yl)ethoxy)-6-(5-methyl-1H-indazol-4-yl)pyrimidine-5-carbonitrile], the Binding % is reported as “++ (++ indicates binding activity from 50 to 85%)”.
With C=CC(=O)N1CC2(CCN(c3nc(C4CCN(C)CC4)nc(-c4c(C)ccc5[nH]ncc45)c3C#N)C2)C1 [Compound I-180, 4-(2-acryloyl-2,6-diazaspiro[3.4]octan-6-yl)-6-(5-methyl-1H-indazol-4-yl)-2-(1-methylpiperidin-4-yl)pyrimidine-5-carbonitrile] the Binding % was “++ (++ indicates binding activity from 50 to 85%)”.
C=CC(=O)N1CC2(CCN(c3nc(N4Cc5ccccc5C4)nc(-c4c(C)ccc5[nH]ncc45)c3C#N)C2)C1 [Compound I-24, 4-(2-acryloyl-2,6-diazaspiro[3.4]octan-6-yl)-2-(isoindolin-2-yl)-6-(5-methyl-1H-indazol-4-yl)pyrimidine-5-carbonitrile] was tested, and the Binding % was “++ (++ indicates binding activity from 50 to 85%)”.
For C=CC(=O)N1CC2(CCN(c3ncnc(-c4c(C)ccc5[nH]nc(N)c45)c3C#N)C2)C1 [Compound I-242, 4-(2-acryloyl-2,6-diazaspiro[3.4]octan-6-yl)-6-(3-amino-5-methyl-1H-indazol-4-yl)pyrimidine-5-carbonitrile], the Binding % was “++ (++ indicates binding activity from 50 to 85%)”.
C#Cc1c(-c2c(C)ccc3[nH]ncc23)ncnc1N1CCC2(CN(C(=O)C=C)C2)C1 [Compound I-268, 1-(6-(5-ethynyl-6-(5-methyl-1H-indazol-4-yl)pyrimidin-4-yl)-2,6-diazaspiro[3.4]octan-2-yl)prop-2-en-1-one] was tested, and the Binding % was “+ (+ indicates binding activity greater than 0% and up to 50%)”.
With C=CC(=O)N1CC2(CCN(c3nc(OCc4ncccn4)nc(-c4c(C)ccc5cnn(C)c45)c3C#N)C2)C1 [Compound I-168, 4-(2-acryloyl-2,6-diazaspiro[3.4]octan-6-yl)-6-(1,6-dimethyl-1H-indazol-7-yl)-2-(pyrimidin-2-ylmethoxy)pyrimidine-5-carbonitrile] the Binding % was “+ (+ indicates binding activity greater than 0% and up to 50%)”.
With C=CC(=O)N1CC2(CCN(c3ncnc(-c4c(O)cccc4F)c3C#N)C2)C1 [Compound I-228, 4-(2-acryloyl-2,6-diazaspiro[3.4]octan-6-yl)-6-(2-fluoro-6-hydroxyphenyl)pyri-midine-5-carbonitrile] the Binding % was “+ (+ indicates binding activity greater than 0% and up to 50%)”.
In the case of C=CC(=O)N1CC2(CCN(c3nc(N4CCOCC4)nc(-c4c(F)ccc5cnn(C6CC6)c45)c3C#N)C2)C1 [Compound I-120, 4-(2-acryloyl-2,6-diazaspiro[3.4]octan-6-yl)-6-(1-cyclopropyl-6-fluoro-1H-indazol-7-yl)-2-morpholinopyrimidine-5-carbonitrile], the Binding % is reported as “+++ (+++ indicates binding activity greater than 85%)”.
In the case of C=CC(=O)N1CC2(CCN(c3nc(N4CCC(CN(C)C)CC4)nc(-c4c(C)ccc5[nH]ncc45)c3C#N)C2)C1 [Compound I-213, 4-(2-acryloyl-2,6-diazaspiro[3.4]octan-6-yl)-2-(4-((dimethylamino)meth-yl)piperidin-1-yl)-6-(5-methyl-1H-indazol-4-yl)pyrimidine-5-carbontrile], the Binding % is reported as “+++ (+++ indicates binding activity greater than 85%)”.
C=CC(=O)N1CC2(CCN(c3nc(OCCc4ccccn4)nc(-c4c(C)ccc5[nH]ncc45)c3C#N)C2)C1 [Compound I-8, 4-(2-acryloyl-2,6-diazaspiro[3.4]octan-6-yl)-6-(5-methyl-1H-indazol-4-yl)-2-(2-(pyridin-2-yl)ethoxy)pyrimidine-5-carbonitrile] was tested, and the Binding % was “+++ (+++ indicates binding activity greater than 85%)”.
C=CC(=O)N1CC2(CCN(c3ncnc(-c4cc(O)cc5ccccc45)c3C#N)C2)C1 [Compound I-233, 4-(2-acryloyl-2,6-diazaspiro[3.4]octan-6-yl)-6-(3-hydroxynaphthalen-1-yl)pyrimidine-5-carbonitrile] was tested, and the Binding % was “+ (+ indicates binding activity greater than 0% and up to 50%)”.
C=CC(=O)N1CC2(CCN(c3nc(OCc4ccnnc4)nc(-c4c(C)ccc5cnn(C)c45)c3C#N)C2)C1 [Compound I-164, 4-(2-acryloyl-2,6-diazaspiro[3.4]octan-6-yl)-6-(1,6-dimethyl-1H-indazol-7-yl)-2-(pyridazin-4-ylmethoxy)pyrimidine-5-carbonitrile] was tested, and the Binding % was “++ (++ indicates binding activity from 50 to 85%)”.
For C=CC(=O)N1CC2(CCN(c3nc(OCc4ccccn4)nc(-c4cccc5ccccc45)c3C#N)C2)C1 [Compound I-113, 4-(2-acryloyl-2,6-diazaspiro[3.4]octan-6-yl)-6-(naphthalen-1-yl)-2-(pyridin-2-ylmethoxy)pyrimidine-5-carbonitrile], the Binding % was “+ (+ indicates binding activity greater than 0% and up to 50%)”.
For C/C=C/C(=O)N1CC2(CCN(c3nc(OCc4ccccn4)nc(-c4c(C)ccc5[nH]ncc45)c3C#N)C2)C1 [Compound I-98, (E)-4-(2-(but-2-enoyl)-2,6-diazaspiro[3.4]octan-6-yl)-6-(5-methyl-1H-indazol-4-yl)-2-(pyridin-2-ylmethoxy)pyrimidine-5-carbonitrile], the Binding % was “+ (+ indicates binding activity greater than 0% and up to 50%)”.

Source: patent publication US12134620B2 (ARAXES PHARMA LLC, priority 2018, dated 2024)
